# Laboratory results: patent publication US20060134725A1, “Method for the determination of the presence of an antibiotic in a fluid” (priority 2003, published 2006)
# Legend:
# Type in all cases: cell-based
# [1] = system: Bacillus stearothermophilus var. calidolactis; experiment: Delvotest microbiological test, 0.27 ml test medium, nutrients added as tablet, different volumes of milk; conditions: for concentration giving a Z-value of 0 (threshold): 2.6 hours at 64° C., Z=0.35.a+0.65.b, FIG. 1
# Description: (§1) The arrangement can be used for detecting residues of antibiotics in milk. The commercially available Delvotest® and BR®-test are commonly used. Delvotest® comprises an agar matrix, CFU's of an acid forming microorganism, as well as a color indicator. With the arrangement mentioned above it is possible to automatically scan the bottom side of each of the samples in a test plate. The color and the brightness of the reflected light are registered in three variables, each describing one color component, for instance the so-called L*a*b* model. In the L*a*b* model, the color spectrum is divided in a two-dimensional matrix. The position of a color in this matrix is registered by means of the two variables “a” and “b”. The variable L indicates the intensity (for instance, from light blue to dark-blue). It is possible to make a criterion comprising the a-value, b-value and L-value to make a composite function as follows: Z=wL.L+wa.a+wb.b
# (§2) where wL, wa and wb are weighting factors for the L-value, a-value and b-value, respectively. […] By combining two or more of the color components in the L*a*b* model in a predetermined manner that depends on the type of residue and the sample, an accurate detection is possible. In practice, a certain value of Z at which a test should switch between positive and negative result (the threshold value) can be experimentally predetermined.
# (§3) As outlined in the detailed description, the following equation was used: Z=0.35.a+0.65.b. The explanation of the symbols used in the Figure is as follows.
# (§4) A commercially available microbiological test system (Delvotest®) having 0.27 ml of test medium containing agar, CFU's of Bacillus stearothermophilus var. calidolactis, an antifolate, and the indicator Bromocresol Purple was investigated using milk with added penicillin G in concentrations of 0, 2, 3, 4 and 6 ppb. These five milk samples were applied to the test systems in a series of four different volumes, ie. 0.05 ml, 0.10 ml (the Delvotest® recommended volume), 0.20 ml and 0.30 ml. Before addition of the milk, a tablet with nutrients was applied on the test medium. After the milk was added, the tests were incubated for 2.6 hours at 64° C. If there are no or little antibiotics that inhibit the growth of the test organism, after some time, an acid environment is formed by the growing microorganisms and the indicator changes color from blue/purple to yellow. However, if there are sufficient antibiotics to inhibit growth, the color of the indicator remains purple.
# Firstly, the colors were measured using the scanning apparatus described in the detailed description using the following formula for the Z-value: Z=0.35.a+0.65.b. […]
# [2] = system: Bacillus stearothermophilus var. calidolactis; experiment: Delvotest microbiological test, 0.15 ml test medium with nutrients present in the test medium, different volumes of milk, visual colour score; conditions: 3 hours at 64° C., FIG. 3
# Protocol: In this test, the nutrients were present in the test medium. The explanation of the symbols used in the Figure is as follows.
# A commercially available microbiolgical test system (Delvotest®) having 0.15 ml of test medium containing agar, CFU's of Bacillus stearothermophilus var. calidolactis, an antifolate, nutrients, and the indicator Bromocresol Purple was investigated using milk with added penicillin G in concentrations of 0, 0.5, 1, 2, 3 and 4 ppb. These six different milk samples were applied to the test systems in a series of five different volumes, i.e. 0.05 ml, 0.10 ml (the Delvotest® recommended volume), 0.15 ml, 0.20 ml and 0.30 ml. After the milk was added, the tests were incubated for 3 hours at a temperature of 64° C. If there are no antibiotics (or only little) that inhibit the growth of the test organism, after a certain amount of time, an acid environment is formed by the growing microorganisms. Then, the color of the indicator changes from blue/purple to yellow.
# Intermediate color changes were assigned values of −2, −1, 0, +1 or +2, depending on the degree of coloration. […] If, for example, a visual color of 2 is chosen as the required threshold value, it can be seen from FIG. 3 that, whereas the standard recommended amount of 0.10 ml milk gives a color of 2 at a concentration of 2 ppb penicillin G, whereas for 0.15, 0.20 and 0.30 ml milk this threshold already is reached at 1.7 ppb penicillin G.
# [3] = system: Bacillus stearothermophilus var. calidolactis; experiment: Delvotest microbiological test, 0.27 ml test medium, nutrients as tablet, different milk volumes at different incubation times; conditions: 4 ppb penicillin G
# Description: as §1, §2, §3, §4
# A similar experimental setup as in Example 1 was used. […] (for 2.4 h, normally referred to as the point of indicator change, and 3.0 h, normally referred to as the point of reading). […]
structure (smiles),measurement,setting,value
CC1(C)S[C@@H]2[C@H](NC(=O)Cc3ccccc3)C(=O)N2[C@H]1C(=O)O [penicillin G],concentration giving a Z-value of 0 (threshold),[1]; 0.10 ml milk on 0.27 ml test medium,3 ppb
same,concentration giving a Z-value of 0 (threshold),[1]; 0.20 ml milk on 0.27 ml test medium,2.3 ppb
same,concentration giving a Z-value of 0 (threshold),[1]; 0.30 ml milk on 0.27 ml test medium,2.0 ppb
same,change of sensitivity of the test towards the antibiotic,"[1]; milk, doubling the amount of fluid sample advocated by the producer of the test",increases by a third
same,concentration giving a visual color of 2 (threshold),[2]; 0.10 ml milk on 0.15 ml test medium,2 ppb
same,concentration giving a visual color of 2 (threshold),[2]; 0.15 ml milk on 0.15 ml test medium,1.7 ppb
same,concentration giving a visual color of 2 (threshold),[2]; 0.20 ml milk on 0.15 ml test medium,1.7 ppb
same,concentration giving a visual color of 2 (threshold),[2]; 0.30 ml milk on 0.15 ml test medium,1.7 ppb
same,Z-value,"[3]; 0.10 ml milk, 2.4 h at 64° C., line ◯ of FIG. 2",11
same,Z-value,"[3]; 0.10 ml milk, 3.0 h at 64° C., line ⋄ of FIG. 2",4
same,Z-value,"[3]; 0.30 ml milk, 2.4 h at 64° C., line Δ of FIG. 2",14
same,Z-value,"[3]; 0.30 ml milk, 3.0 h at 64° C., line □ of FIG. 2",13
